From article PMC5392334, “Discovery and characterization of a novel irreversible EGFR mutants selective and potent kinase inhibitor CHMFL-EGFR-26 with a distinct binding mode” (Oncotarget, 2017)

Legend:
CHEK1 = biological target: T1, CHEK1 (Homo sapiens, UniProt O14757); assay: KinomeScan; type: binding; settings: read-out: % control
T1 construct: purchased DiscoveRx KINOMEscan

ACVR2B = biological target: T2, ACVR2B (Homo sapiens, UniProt Q13705); assay: KinomeScan; type: binding; settings: read-out: % control
T2 construct: purchased DiscoveRx KINOMEscan
T2 sequence (Q13705 19-512): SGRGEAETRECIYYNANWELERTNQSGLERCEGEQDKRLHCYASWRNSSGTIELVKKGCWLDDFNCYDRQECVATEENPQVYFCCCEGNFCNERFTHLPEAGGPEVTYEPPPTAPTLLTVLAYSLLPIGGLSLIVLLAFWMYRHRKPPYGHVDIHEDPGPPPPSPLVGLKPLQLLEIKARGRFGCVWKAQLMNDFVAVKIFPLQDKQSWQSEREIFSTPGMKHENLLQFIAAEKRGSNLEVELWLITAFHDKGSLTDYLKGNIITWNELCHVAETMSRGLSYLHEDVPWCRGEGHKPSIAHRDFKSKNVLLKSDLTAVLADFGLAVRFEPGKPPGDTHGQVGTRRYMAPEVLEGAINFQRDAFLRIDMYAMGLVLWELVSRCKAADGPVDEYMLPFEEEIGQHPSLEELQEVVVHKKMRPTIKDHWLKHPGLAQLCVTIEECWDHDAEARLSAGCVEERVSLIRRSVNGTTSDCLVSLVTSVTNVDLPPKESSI

LRRK2 = biological target: T3, LRRK2 (Homo sapiens, UniProt Q5S007); assay: KinomeScan; type: binding; settings: read-out: % control
T3 construct: purchased DiscoveRx KINOMEscan

MARK3 = biological target: T4, MARK3 (Homo sapiens, UniProt P27448); assay: KinomeScan; type: binding; settings: read-out: % control
T4 construct: purchased DiscoveRx KINOMEscan

ERK2 = biological target: T5, ERK2 (Homo sapiens, UniProt P28482); assay: KinomeScan; type: binding; settings: read-out: % control
T5 construct: purchased DiscoveRx KINOMEscan

NIK = biological target: T6, NIK (Homo sapiens, UniProt Q99558); assay: KinomeScan; type: binding; settings: read-out: % control
T6 construct: purchased DiscoveRx KINOMEscan

ADCK3 = biological target: T7, ADCK3 (Homo sapiens, UniProt Q8NI60); assay: KinomeScan; type: binding; settings: read-out: % control
T7 construct: purchased DiscoveRx KINOMEscan

PRKG1 = biological target: T8, PRKG1 (Homo sapiens, UniProt Q13976); assay: KinomeScan; type: binding; settings: read-out: % control
T8 construct: purchased DiscoveRx KINOMEscan

BaF3-TEL-EGFR-L858R = assay: Anti-proliferation, BaF3 isogenic cell lines (CellTiter-Glo); type: cell-based; settings: Mus musculus, 72 hours, triplet testing
EPHA8 = biological target: T9, EPHA8 (Homo sapiens, UniProt P29322); assay: KinomeScan; type: binding; settings: read-out: % control
T9 construct: purchased DiscoveRx KINOMEscan

HIPK4 = biological target: T10, HIPK4 (Homo sapiens, UniProt Q8NE63); assay: KinomeScan; type: binding; settings: read-out: % control
T10 construct: purchased DiscoveRx KINOMEscan

SYK = biological target: T11, SYK (Homo sapiens, UniProt P43405); assay: KinomeScan; type: binding; settings: read-out: % control
T11 construct: purchased DiscoveRx KINOMEscan

DAPK2 = biological target: T12, DAPK2 (Homo sapiens, UniProt Q9UIK4); assay: KinomeScan; type: binding; settings: read-out: % control
T12 construct: purchased DiscoveRx KINOMEscan

CDK4-cyclinD1 = biological target: T13, CDK4-cyclinD1 (Homo sapiens, UniProt P11802); assay: KinomeScan; type: binding; settings: read-out: % control
T13 construct: purchased DiscoveRx KINOMEscan

TAOK3 = biological target: T14, TAOK3 (Homo sapiens, UniProt Q9H2K8); assay: KinomeScan; type: binding; settings: read-out: % control
T14 construct: purchased DiscoveRx KINOMEscan
T14 sequence (Q9H2K8 whole entry): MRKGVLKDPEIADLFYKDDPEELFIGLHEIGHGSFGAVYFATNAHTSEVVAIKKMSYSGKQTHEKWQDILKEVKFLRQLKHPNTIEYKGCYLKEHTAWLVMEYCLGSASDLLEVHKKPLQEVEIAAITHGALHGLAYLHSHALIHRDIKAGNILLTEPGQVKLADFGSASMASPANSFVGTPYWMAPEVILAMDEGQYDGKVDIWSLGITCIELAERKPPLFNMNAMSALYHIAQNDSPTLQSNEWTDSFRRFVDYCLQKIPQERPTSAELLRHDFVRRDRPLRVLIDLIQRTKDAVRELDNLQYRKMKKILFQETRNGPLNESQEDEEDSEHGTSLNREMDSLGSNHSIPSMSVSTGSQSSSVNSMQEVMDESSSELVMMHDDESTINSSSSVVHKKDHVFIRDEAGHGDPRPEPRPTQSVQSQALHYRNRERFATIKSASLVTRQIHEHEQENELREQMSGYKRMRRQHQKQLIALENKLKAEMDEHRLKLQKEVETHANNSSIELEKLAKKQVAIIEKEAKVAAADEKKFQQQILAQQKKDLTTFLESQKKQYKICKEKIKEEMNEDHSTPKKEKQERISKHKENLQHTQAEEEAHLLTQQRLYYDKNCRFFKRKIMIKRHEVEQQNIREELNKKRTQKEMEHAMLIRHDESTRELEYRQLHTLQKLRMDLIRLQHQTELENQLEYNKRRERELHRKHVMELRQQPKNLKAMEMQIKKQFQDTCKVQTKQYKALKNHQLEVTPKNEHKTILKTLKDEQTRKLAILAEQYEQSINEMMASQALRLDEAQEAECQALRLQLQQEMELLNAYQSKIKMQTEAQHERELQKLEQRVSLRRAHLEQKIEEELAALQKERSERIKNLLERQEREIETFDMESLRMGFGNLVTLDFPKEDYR

PRKR = biological target: T15, PRKR (Homo sapiens, UniProt P19525); assay: KinomeScan; type: binding; settings: read-out: % control
T15 construct: purchased DiscoveRx KINOMEscan

TAOK2 = biological target: T16, TAOK2 (Homo sapiens, UniProt Q9UL54); assay: KinomeScan; type: binding; settings: read-out: % control
T16 construct: purchased DiscoveRx KINOMEscan

RET(V804L) = biological target: T17, RET(V804L) (Homo sapiens, UniProt P07949, V804L); assay: KinomeScan; type: binding; settings: read-out: % control
T17 construct: purchased DiscoveRx KINOMEscan
T17 sequence (P07949 29-1114 V804L): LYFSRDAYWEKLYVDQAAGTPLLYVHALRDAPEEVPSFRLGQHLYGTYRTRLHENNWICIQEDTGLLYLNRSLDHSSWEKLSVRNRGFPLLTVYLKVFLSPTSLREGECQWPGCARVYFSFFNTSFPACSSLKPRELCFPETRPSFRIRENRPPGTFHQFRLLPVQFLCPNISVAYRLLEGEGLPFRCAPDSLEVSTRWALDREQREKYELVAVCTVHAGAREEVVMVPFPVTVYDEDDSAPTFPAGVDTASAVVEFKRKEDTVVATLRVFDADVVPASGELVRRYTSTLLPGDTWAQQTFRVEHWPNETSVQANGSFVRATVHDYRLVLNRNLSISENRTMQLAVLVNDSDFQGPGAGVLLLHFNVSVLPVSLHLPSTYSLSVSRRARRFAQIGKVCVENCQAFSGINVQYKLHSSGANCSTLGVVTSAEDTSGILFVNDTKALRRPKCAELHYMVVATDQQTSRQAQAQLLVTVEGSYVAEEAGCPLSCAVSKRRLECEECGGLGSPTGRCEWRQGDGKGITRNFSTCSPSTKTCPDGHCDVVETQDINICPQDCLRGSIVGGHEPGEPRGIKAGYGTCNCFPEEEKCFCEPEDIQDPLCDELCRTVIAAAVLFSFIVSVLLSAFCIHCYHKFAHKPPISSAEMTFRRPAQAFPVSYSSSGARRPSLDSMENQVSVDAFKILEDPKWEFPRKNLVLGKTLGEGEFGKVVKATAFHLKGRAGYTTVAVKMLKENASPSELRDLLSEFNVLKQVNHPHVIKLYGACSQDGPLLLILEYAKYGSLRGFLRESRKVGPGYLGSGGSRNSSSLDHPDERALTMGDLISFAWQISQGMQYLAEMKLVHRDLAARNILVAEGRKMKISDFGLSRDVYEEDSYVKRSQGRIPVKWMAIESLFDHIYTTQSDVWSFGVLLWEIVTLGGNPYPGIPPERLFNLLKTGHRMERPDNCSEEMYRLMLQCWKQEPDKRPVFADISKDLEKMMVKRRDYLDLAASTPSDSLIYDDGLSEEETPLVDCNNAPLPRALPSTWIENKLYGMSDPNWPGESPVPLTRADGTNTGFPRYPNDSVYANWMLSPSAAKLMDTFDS

BMPR1B = biological target: T18, BMPR1B (Homo sapiens, UniProt O00238); assay: KinomeScan; type: binding; settings: read-out: % control
T18 construct: purchased DiscoveRx KINOMEscan

PAK2 = biological target: T19, PAK2 (Homo sapiens, UniProt Q13177); assay: KinomeScan; type: binding; settings: read-out: % control
T19 construct: purchased DiscoveRx KINOMEscan

[1] = biological target: T20, ABL1(F317I)-phosphorylated (Homo sapiens, UniProt P00519, F317I); assay: KinomeScan; type: binding; settings: read-out: % control
T20 construct: purchased DiscoveRx KINOMEscan

CDKL5 = biological target: T21, CDKL5 (Homo sapiens, UniProt O76039); assay: KinomeScan; type: binding; settings: read-out: % control
T21 construct: purchased DiscoveRx KINOMEscan

[2] = biological target: T22, RSK1(Kin.Dom.2-C-terminal) (Homo sapiens, UniProt Q15418); assay: KinomeScan; type: binding; settings: read-out: % control
T22 construct: RSK1(Kin.Dom.2-C-terminal); purchased DiscoveRx KINOMEscan

MRCKB = biological target: T23, MRCKB (Homo sapiens, UniProt Q9Y5S2); assay: KinomeScan; type: binding; settings: read-out: % control
T23 construct: purchased DiscoveRx KINOMEscan

DYRK2 = biological target: T24, DYRK2 (Homo sapiens, UniProt Q92630); assay: KinomeScan; type: binding; settings: read-out: % control
T24 construct: purchased DiscoveRx KINOMEscan

MLK3 = biological target: T25, MLK3 (Homo sapiens, UniProt Q16584); assay: KinomeScan; type: binding; settings: read-out: % control
T25 construct: purchased DiscoveRx KINOMEscan

RIOK1 = biological target: T26, RIOK1 (Homo sapiens, UniProt Q9BRS2); assay: KinomeScan; type: binding; settings: read-out: % control
T26 construct: purchased DiscoveRx KINOMEscan

LIMK1 = biological target: T27, LIMK1 (Homo sapiens, UniProt P53667); assay: KinomeScan; type: binding; settings: read-out: % control
T27 construct: purchased DiscoveRx KINOMEscan

PHKG2 = biological target: T28, PHKG2 (Homo sapiens, UniProt P15735); assay: KinomeScan; type: binding; settings: read-out: % control
T28 construct: purchased DiscoveRx KINOMEscan
T28 sequence (P15735 whole entry): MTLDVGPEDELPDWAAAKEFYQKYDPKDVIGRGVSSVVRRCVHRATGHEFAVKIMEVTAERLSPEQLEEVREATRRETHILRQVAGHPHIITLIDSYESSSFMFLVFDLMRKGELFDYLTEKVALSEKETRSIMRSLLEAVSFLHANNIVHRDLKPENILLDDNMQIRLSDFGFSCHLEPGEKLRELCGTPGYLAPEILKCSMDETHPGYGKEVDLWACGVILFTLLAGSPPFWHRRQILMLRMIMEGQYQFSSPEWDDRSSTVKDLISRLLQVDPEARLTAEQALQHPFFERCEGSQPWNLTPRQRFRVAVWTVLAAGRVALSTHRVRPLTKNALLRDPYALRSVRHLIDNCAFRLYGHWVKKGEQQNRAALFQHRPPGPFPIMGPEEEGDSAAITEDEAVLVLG

AAK1 = biological target: T29, AAK1 (Homo sapiens, UniProt Q2M2I8); assay: KinomeScan; type: binding; settings: read-out: % control
T29 construct: purchased DiscoveRx KINOMEscan

ERN1 = biological target: T30, ERN1 (Homo sapiens, UniProt O75460); assay: KinomeScan; type: binding; settings: read-out: % control
T30 construct: purchased DiscoveRx KINOMEscan

CAMK1B = biological target: T31, CAMK1B (Homo sapiens, UniProt Q6P2M8); assay: KinomeScan; type: binding; settings: read-out: % control
T31 construct: purchased DiscoveRx KINOMEscan

ZAK = biological target: T32, ZAK (Homo sapiens, UniProt Q9NYL2); assay: KinomeScan; type: binding; settings: read-out: % control
T32 construct: purchased DiscoveRx KINOMEscan

BaF3-FL-EGFR-L858R-T790M = assay: Anti-proliferation, BaF3 isogenic cell lines (CellTiter-Glo); type: cell-based; settings: Mus musculus, 72 hours, triplet testing
MEK1 = biological target: T33, MEK1 (Homo sapiens, UniProt Q02750); assay: KinomeScan; type: binding; settings: read-out: % control
T33 construct: purchased Invitrogen (SelectScreen service)
T33 sequence (Q02750 whole entry): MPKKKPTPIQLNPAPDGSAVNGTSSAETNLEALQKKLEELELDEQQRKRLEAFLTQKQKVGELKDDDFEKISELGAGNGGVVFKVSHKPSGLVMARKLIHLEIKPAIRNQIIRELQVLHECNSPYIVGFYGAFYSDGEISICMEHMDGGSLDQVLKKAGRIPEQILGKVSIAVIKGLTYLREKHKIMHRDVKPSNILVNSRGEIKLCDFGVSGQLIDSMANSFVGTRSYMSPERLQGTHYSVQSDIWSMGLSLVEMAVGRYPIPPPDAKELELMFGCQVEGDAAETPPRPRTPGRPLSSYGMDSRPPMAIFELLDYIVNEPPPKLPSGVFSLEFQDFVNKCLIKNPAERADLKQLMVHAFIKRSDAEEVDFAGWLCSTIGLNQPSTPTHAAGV

[3] = biological target: T34, JAK3(JH1domain-catalytic) (Homo sapiens, UniProt P52333); assay: KinomeScan; type: binding; settings: read-out: % control
T34 construct: JAK3(JH1domain-catalytic); purchased DiscoveRx KINOMEscan

PIK3CA(H1047L) = biological target: T35, PIK3CA(H1047L) (Homo sapiens, UniProt P42336, H1047L); assay: KinomeScan; type: binding; settings: read-out: % control
T35 construct: purchased DiscoveRx KINOMEscan

ERK4 = biological target: T36, ERK4 (Homo sapiens, UniProt P31152); assay: KinomeScan; type: binding; settings: read-out: % control
T36 construct: purchased DiscoveRx KINOMEscan

MAST1 = biological target: T37, MAST1 (Homo sapiens, UniProt Q9Y2H9); assay: KinomeScan; type: binding; settings: read-out: % control
T37 construct: purchased DiscoveRx KINOMEscan
T37 sequence (Q9Y2H9 whole entry): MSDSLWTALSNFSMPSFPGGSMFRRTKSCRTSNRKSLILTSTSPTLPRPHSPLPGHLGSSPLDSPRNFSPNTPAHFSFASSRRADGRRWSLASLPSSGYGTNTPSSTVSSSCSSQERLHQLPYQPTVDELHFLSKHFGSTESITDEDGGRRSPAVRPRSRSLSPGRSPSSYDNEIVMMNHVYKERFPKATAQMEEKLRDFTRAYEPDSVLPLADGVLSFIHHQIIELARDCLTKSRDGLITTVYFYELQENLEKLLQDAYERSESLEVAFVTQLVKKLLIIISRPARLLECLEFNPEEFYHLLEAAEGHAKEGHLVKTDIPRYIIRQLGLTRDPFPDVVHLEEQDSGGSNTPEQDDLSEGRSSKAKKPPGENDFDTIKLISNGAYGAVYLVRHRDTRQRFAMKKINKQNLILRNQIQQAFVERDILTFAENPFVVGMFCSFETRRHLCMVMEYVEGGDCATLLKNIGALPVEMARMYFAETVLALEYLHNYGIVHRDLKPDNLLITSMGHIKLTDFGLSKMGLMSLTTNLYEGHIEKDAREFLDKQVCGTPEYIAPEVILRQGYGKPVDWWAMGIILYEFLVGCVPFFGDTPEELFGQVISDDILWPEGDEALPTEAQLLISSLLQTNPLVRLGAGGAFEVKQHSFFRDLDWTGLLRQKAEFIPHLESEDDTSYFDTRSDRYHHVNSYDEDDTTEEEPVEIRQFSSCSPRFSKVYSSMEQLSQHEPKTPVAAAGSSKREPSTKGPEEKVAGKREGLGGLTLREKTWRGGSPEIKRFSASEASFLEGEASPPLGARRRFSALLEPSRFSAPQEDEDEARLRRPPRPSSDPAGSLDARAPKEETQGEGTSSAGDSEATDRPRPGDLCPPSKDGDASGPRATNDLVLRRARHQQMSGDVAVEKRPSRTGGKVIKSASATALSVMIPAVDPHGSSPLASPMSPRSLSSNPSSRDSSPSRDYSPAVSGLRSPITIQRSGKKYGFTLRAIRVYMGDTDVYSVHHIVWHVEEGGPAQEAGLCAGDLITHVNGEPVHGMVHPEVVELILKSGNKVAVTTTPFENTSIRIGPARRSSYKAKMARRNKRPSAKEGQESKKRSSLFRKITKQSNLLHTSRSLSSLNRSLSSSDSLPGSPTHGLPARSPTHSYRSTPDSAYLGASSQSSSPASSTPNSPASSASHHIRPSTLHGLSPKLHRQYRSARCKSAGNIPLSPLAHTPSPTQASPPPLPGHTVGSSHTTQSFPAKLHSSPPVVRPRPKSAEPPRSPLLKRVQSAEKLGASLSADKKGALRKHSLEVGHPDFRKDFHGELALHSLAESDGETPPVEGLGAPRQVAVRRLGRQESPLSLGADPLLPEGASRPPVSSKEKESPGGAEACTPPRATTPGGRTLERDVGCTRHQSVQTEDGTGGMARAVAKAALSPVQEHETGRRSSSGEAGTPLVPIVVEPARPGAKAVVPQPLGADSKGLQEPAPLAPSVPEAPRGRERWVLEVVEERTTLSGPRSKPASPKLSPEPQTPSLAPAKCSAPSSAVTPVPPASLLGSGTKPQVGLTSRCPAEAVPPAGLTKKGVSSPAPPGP

DCAMKL3 = biological target: T38, DCAMKL3 (Homo sapiens, UniProt Q9C098); assay: KinomeScan; type: binding; settings: read-out: % control
T38 construct: purchased DiscoveRx KINOMEscan

[4] = tested on: BaF3-FL-EGFR-L858R-T790M-C797S; assay: Anti-proliferation, BaF3 isogenic cell lines (CellTiter-Glo); type: cell-based; settings: Mus musculus, 72 hours, triplet testing
PRKX = biological target: T39, PRKX (Homo sapiens, UniProt P51817); assay: KinomeScan; type: binding; settings: read-out: % control
T39 construct: purchased DiscoveRx KINOMEscan

PAK4 = biological target: T40, PAK4 (Homo sapiens, UniProt O96013); assay: KinomeScan; type: binding; settings: read-out: % control
T40 construct: purchased DiscoveRx KINOMEscan

## C=CC(=O)N1CCC[C@@H](n2nc(-c3ccc(OCc4cccc(C)n4)c(Cl)c3)c3c(N)ncnc32)C1 [CHMFL-EGFR-26]
CHEK1
  remaining binding at 1 µM: 100%
ACVR2B
  remaining binding at 1 µM: 85%
LRRK2
  remaining binding at 1 µM: 100%
MARK3
  remaining binding at 1 µM: 100%
ERK2
  remaining binding at 1 µM: 94%
NIK
  remaining binding at 1 µM: 100%
ADCK3
  remaining binding at 1 µM: 100%
PRKG1
  remaining binding at 1 µM: 14%
BaF3-TEL-EGFR-L858R
  GI50: < 0.3 nM
EPHA8
  remaining binding at 1 µM: 89%
HIPK4
  remaining binding at 1 µM: 100%
SYK
  remaining binding at 1 µM: 94%
DAPK2
  remaining binding at 1 µM: 100%
CDK4-cyclinD1
  remaining binding at 1 µM: 100%
TAOK3
  remaining binding at 1 µM: 100%
PRKR
  remaining binding at 1 µM: 80%
TAOK2
  remaining binding at 1 µM: 78%
RET(V804L)
  remaining binding at 1 µM: 100%
BMPR1B
  remaining binding at 1 µM: 97%
PAK2
  remaining binding at 1 µM: 77%
[1]
  remaining binding at 1 µM: 98%
CDKL5
  remaining binding at 1 µM: 100%
[2]
  remaining binding at 1 µM: 83%
MRCKB
  remaining binding at 1 µM: 80%
DYRK2
  remaining binding at 1 µM: 86%
MLK3
  remaining binding at 1 µM: 100%
RIOK1
  remaining binding at 1 µM: 90%
LIMK1
  remaining binding at 1 µM: 99%
PHKG2
  remaining binding at 1 µM: 100%
AAK1
  remaining binding at 1 µM: 96%
ERN1
  remaining binding at 1 µM: 81%
CAMK1B
  remaining binding at 1 µM: 82%
ZAK
  remaining binding at 1 µM: 100%
BaF3-FL-EGFR-L858R-T790M
  GI50: 6 nM
MEK1
  remaining binding at 1 µM: 0.3%
[3]
  remaining binding at 1 µM: 0.7%
PIK3CA(H1047L)
  remaining binding at 1 µM: 81%
ERK4
  remaining binding at 1 µM: 83%
MAST1
  remaining binding at 1 µM: 93%
DCAMKL3
  remaining binding at 1 µM: 100%
[4]
  GI50: 340 nM
PRKX
  remaining binding at 1 µM: 81%
PAK4
  remaining binding at 1 µM: 94%
